In brackets after ≈: the same amount, converted by molar mass.
Columns and labels:
[1] = tested on: Acinetobacter calcoaceticus CMX 669; test: In vitro antibacterial activity, agar dilution MIC; type: cell-based; conditions: CMX669; Acinetobacter calcoaceticus CMX 669; BHI agar, 35°-37° C., 20 to 24 hours; read-out: MIC
Procedure: (§1) Representative compounds of the present invention were assayed in vitro for antibacterial activity as follows: Twelve petri dishes containing successive aqueous dilutions of the test compound mixed with 10 mL of sterilized Brain Heart Infusion (BHI) agar (Difco 0418-01-5) were prepared. Each plate was inoculated with 1:100 (or 1:10 for slow-growing strains, such as Micrococcus and Streptococcus) dilutions of up to 32 different microorganisms, using a Steers replicator block. The inoculated plates were incubated 35°-37° C. for 20 to 24 hours. In addition, a control plate, using BHI agar containing no test compound, was prepared and incubated at the beginning and end of each test.
(§2) An additional plate containing a compound having known susceptibility patterns for the organisms being tested and belonging to the same antibiotic class as the test compound was also prepared and incubated as a further control, as well as to provide test-to-test comparability. Erythromycin A was used for this purpose.
(§3) After incubation, each disk was read. The minimum inhibitory concentration (MIC) was defined as the lowest concentration of drug yielding no growth, a slight haze, or sparsely isolated colonies on the inoculum spot as compared to the growth control.

[2] = tested on: Enterobacter aerogenes ATCC 13048; test: In vitro antibacterial activity, agar dilution MIC; type: cell-based; conditions: Klebsiella aerogenes, ATCC13048; Enterobacter aerogenes ATCC 13048; BHI agar, 35°-37° C., 20 to 24 hours; read-out: MIC
Procedure: as §1, §2, §3

[3] = tested on: Enterococcus faecium ATCC 8043; test: In vitro antibacterial activity, agar dilution MIC; type: cell-based; conditions: Enterococcus faecium, ATCC8043
Procedure: as §1, §2, §3

Escherichia coli DC-2 = test: In vitro antibacterial activity, agar dilution MIC; type: cell-based; conditions: DC2; Escherichia coli DC-2; BHI agar, 35°-37° C., 20 to 24 hours; read-out: MIC
Procedure: as §1, §2, §3

Escherichia coli H560 = test: In vitro antibacterial activity, agar dilution MIC; type: cell-based; conditions: Escherichia coli H560; BHI agar, 35°-37° C., 20 to 24 hours; read-out: MIC
Procedure: as §1, §2, §3

Escherichia coli Juhl = test: In vitro antibacterial activity, agar dilution MIC; type: cell-based; conditions: Escherichia coli Juhl; BHI agar, 35°-37° C., 20 to 24 hours; read-out: MIC
Procedure: as §1, §2, §3

Escherichia coli KNK 437 = test: In vitro antibacterial activity, agar dilution MIC; type: cell-based; conditions: KNK437; Escherichia coli KNK 437; BHI agar, 35°-37° C., 20 to 24 hours; read-out: MIC
Procedure: as §1, §2, §3

[4] = tested on: Klebsiella pneumoniae ATCC 8045; test: In vitro antibacterial activity, agar dilution MIC; type: cell-based; conditions: ATCC8045; Klebsiella pneumoniae ATCC 8045; BHI agar, 35°-37° C., 20 to 24 hours; read-out: MIC
Procedure: as §1, §2, §3

Micrococcus luteus 4698 = test: In vitro antibacterial activity, agar dilution MIC; type: cell-based; conditions: Micrococcus luteus, 4698
Procedure: as §1, §2, §3

[5] = tested on: Providencia stuartii CMX 640; test: In vitro antibacterial activity, agar dilution MIC; type: cell-based; conditions: CMX640; Providencia stuartii CMX 640; BHI agar, 35°-37° C., 20 to 24 hours; read-out: MIC
Procedure: as §1, §2, §3

[6] = tested on: Pseudomonas aeruginosa 2862; test: In vitro antibacterial activity, agar dilution MIC; type: cell-based; conditions: Pseudomonas aeruginosa 2862; BHI agar, 35°-37° C., 20 to 24 hours; read-out: MIC
Procedure: as §1, §2, §3

[7] = tested on: Pseudomonas aeruginosa 5263; test: In vitro antibacterial activity, agar dilution MIC; type: cell-based; conditions: Pseudomonas aeruginosa 5263; BHI agar, 35°-37° C., 20 to 24 hours; read-out: MIC
Procedure: as §1, §2, §3

[8] = tested on: Pseudomonas aeruginosa A5007; test: In vitro antibacterial activity, agar dilution MIC; type: cell-based; conditions: Pseudomonas aeruginosa A5007; BHI agar, 35°-37° C., 20 to 24 hours; read-out: MIC
Procedure: as §1, §2, §3

[9] = tested on: Pseudomonas aeruginosa BMH10; test: In vitro antibacterial activity, agar dilution MIC; type: cell-based; conditions: Pseudomonas aeruginosa BMH10; BHI agar, 35°-37° C., 20 to 24 hours; read-out: MIC
Procedure: as §1, §2, §3

[10] = tested on: Pseudomonas aeruginosa K799/WT; test: In vitro antibacterial activity, agar dilution MIC; type: cell-based; conditions: Pseudomonas aeruginosa K799/WT; BHI agar, 35°-37° C., 20 to 24 hours; read-out: MIC
Procedure: as §1, §2, §3

Pseudomonas cepacia 2961 = test: In vitro antibacterial activity, agar dilution MIC; type: cell-based; conditions: Burkholderia cepacia; Pseudomonas cepacia 2961; BHI agar, 35°-37° C., 20 to 24 hours; read-out: MIC
Procedure: as §1, §2, §3

[11] = tested on: Staphylococcus aureus 1775 Cipro R; test: In vitro antibacterial activity, agar dilution MIC; type: cell-based; conditions: 1775CIPROR; Staphylococcus aureus 1775 Cipro R; BHI agar, 35°-37° C., 20 to 24 hours; read-out: MIC
Procedure: as §1, §2, §3

[12] = tested on: Staphylococcus aureus A5177; test: In vitro antibacterial activity, agar dilution MIC; type: cell-based; conditions: Staphylococcus aureus A5177; BHI agar, 35°-37° C., 20 to 24 hours; read-out: MIC
Procedure: as §1, §2, §3

[13] = tested on: Staphylococcus aureus A5278; test: In vitro antibacterial activity, agar dilution MIC; type: cell-based; conditions: Staphylococcus aureus A5278; BHI agar, 35°-37° C., 20 to 24 hours; read-out: MIC
Procedure: as §1, §2, §3

[14] = tested on: Staphylococcus aureus ATCC 6538P; test: In vitro antibacterial activity, agar dilution MIC; type: cell-based; conditions: Staphylococcus aureus, ATCC6538P
Procedure: as §1, §2, §3

[15] = tested on: Staphylococcus aureus CMX 553; test: In vitro antibacterial activity, agar dilution MIC; type: cell-based; conditions: Staphylococcus aureus, CMX553
Procedure: as §1, §2, §3

[16] = tested on: Staphylococcus aureus CMX 642a; test: In vitro antibacterial activity, agar dilution MIC; type: cell-based; conditions: Staphylococcus aureus, CMX642A
Procedure: as §1, §2, §3

[17] = tested on: Staphylococcus aureus NCTC 10649; test: In vitro antibacterial activity, agar dilution MIC; type: cell-based; conditions: Staphylococcus aureus, NCTC10649
Procedure: as §1, §2, §3

[18] = tested on: Staphylococcus epidermidis 3519; test: In vitro antibacterial activity, agar dilution MIC; type: cell-based; conditions: Staphylococcus epidermidis, 3519
Procedure: as §1, §2, §3

[19] = tested on: Streptococcus agalactiae 508; test: In vitro antibacterial activity, agar dilution MIC; type: cell-based; conditions: Streptococcus agalactiae, 508
Procedure: as §1, §2, §3

[20] = tested on: Streptococcus bovis A5169; test: In vitro antibacterial activity, agar dilution MIC; type: cell-based; conditions: Streptococcus equinus, A5169
Procedure: as §1, §2, §3

[21] = tested on: Streptococcus pyogenes 2548 induc; test: In vitro antibacterial activity, agar dilution MIC; type: cell-based; conditions: Streptococcus pyogenes, 2548INDUC
Procedure: as §1, §2, §3

[22] = tested on: Streptococcus pyogenes 930 const; test: In vitro antibacterial activity, agar dilution MIC; type: cell-based; conditions: Streptococcus pyogenes 930 const; BHI agar, 35°-37° C., 20 to 24 hours; read-out: MIC
Procedure: as §1, §2, §3

[23] = tested on: Streptococcus pyogenes EES61; test: In vitro antibacterial activity, agar dilution MIC; type: cell-based; conditions: Streptococcus pyogenes, EES61
Procedure: as §1, §2, §3

Candida albicans CCH 442 = test: microbe, parasite or virus in culture; conditions: CCH442
Procedure: as §1, §2, §3

Escherichia coli SS = test: microbe, parasite or virus in culture; conditions: Escherichia coli
Procedure: as §1, §2, §3

[24] = tested on: Micrococcus luteus ATCC 9341; test: microbe, parasite or virus in culture; conditions: Micrococcus luteus, ATCC9341
Procedure: as §1, §2, §3

[25] = tested on: Nocardia asteroides ATCC 9970; test: microbe, parasite or virus in culture; conditions: ATCC9970
Procedure: as §1, §2, §3

[26] = tested on: Pseudomonas aeruginosa K799/61; test: In vitro antibacterial activity, agar dilution MIC; type: cell-based; conditions: BHI agar, 35°-37° C., 20 to 24 hours, read-out: MIC
[27] = tested on: Mycobacterium smegmatis ATCC 114; test: In vitro antibacterial activity, agar dilution MIC; type: cell-based; conditions: Mycolicibacterium smegmatis, ATCC114, BHI agar, 35°-37° C., 20 to 24 hours

## CC[C@H]1OC(=O)[C@H](C)[C@@H](O[C@H]2C[C@](C)(F)[C@@H](OC)[C@H](C)O2)[C@H](C)[C@@H](O[C@@H]2O[C@H](C)C[C@H](N(C)C)[C@H]2O)[C@](C)(O)C[C@@H](C)C(=O)[C@H](C)[C@@H](O)[C@]1(C)O [Example 9, (3"s)--3"-Desmethoxy-3"-fluoro-4"-O-methylerythromycin A]
[1]
  MIC: > 100 µg/mL
[2]
  MIC: > 100 µg/mL
[3]
  MIC: 0.39 µg/mL (≈ 0.53 µM)
Escherichia coli DC-2
  MIC: > 100 µg/mL
Escherichia coli H560
  MIC: > 100 µg/mL
Escherichia coli Juhl
  MIC: > 100 µg/mL
Escherichia coli KNK 437
  MIC: > 100 µg/mL
[4]
  MIC: > 100 µg/mL
Micrococcus luteus 4698
  MIC: 0.39 µg/mL (≈ 0.53 µM)
[5]
  MIC: > 100 µg/mL
[6]
  MIC: > 100 µg/mL
[7]
  MIC: > 100 µg/mL
[8]
  MIC: > 100 µg/mL
[9]
  MIC: > 100 µg/mL
[10]
  MIC: > 100 µg/mL
Pseudomonas cepacia 2961
  MIC: > 100 µg/mL
[11]
  MIC: > 100 µg/mL
[12]
  MIC: 12.5 µg/mL (≈ 17 µM)
[13]
  MIC: > 100 µg/mL
[14]
  MIC: 1.56 µg/mL (≈ 2.12 µM)
[15]
  MIC: 1.56 µg/mL (≈ 2.12 µM)
[16]
  MIC: 1.56 µg/mL (≈ 2.12 µM)
[17]
  MIC: 1.56 µg/mL (≈ 2.12 µM)
[18]
  MIC: 1.56 µg/mL (≈ 2.12 µM)
[19]
  MIC: 0.39 µg/mL (≈ 0.53 µM)
[20]
  MIC: 0.2 µg/mL (≈ 0.272 µM)
[21]
  MIC: 3.1 µg/mL (≈ 4.21 µM)
[22]
  MIC: > 100 µg/mL
[23]
  MIC: 0.39 µg/mL (≈ 0.53 µM)
Candida albicans CCH 442
  MIC: > 100 µg/mL
Escherichia coli SS
  MIC: 1.56 µg/mL (≈ 2.12 µM)
[24]
  MIC: 0.2 µg/mL (≈ 0.272 µM)
[25]
  MIC: 0.2 µg/mL (≈ 0.272 µM)
[26]
  MIC: 50 µg/mL (≈ 67.9 µM)
[27]
  MIC: 12.5 µg/mL (≈ 17 µM)

From patent US5393743A, “Erythromycin derivatives” (Abbott Laboratories, priority 1993, dated 1995)
